For 18 compounds, IC50 results are on record in patent US20260297083A1, “SUBSTITUTED ACETYLENE COMPOUND DERIVATIVES AND THEIR PHARMACEUTICAL USE” (AVELOS THERAPEUTICS INC., priority 2023, published 2026).

One assay addresses T1, Polθ polymerase domain (amino acids 1792-2590) (Homo sapiens, UniProt O75417).
T1 construct: 10×Histidine-SUMO (N, cleaved yes); made in house; host or cells: E. coli
T1 sequence (O75417 1792-2590): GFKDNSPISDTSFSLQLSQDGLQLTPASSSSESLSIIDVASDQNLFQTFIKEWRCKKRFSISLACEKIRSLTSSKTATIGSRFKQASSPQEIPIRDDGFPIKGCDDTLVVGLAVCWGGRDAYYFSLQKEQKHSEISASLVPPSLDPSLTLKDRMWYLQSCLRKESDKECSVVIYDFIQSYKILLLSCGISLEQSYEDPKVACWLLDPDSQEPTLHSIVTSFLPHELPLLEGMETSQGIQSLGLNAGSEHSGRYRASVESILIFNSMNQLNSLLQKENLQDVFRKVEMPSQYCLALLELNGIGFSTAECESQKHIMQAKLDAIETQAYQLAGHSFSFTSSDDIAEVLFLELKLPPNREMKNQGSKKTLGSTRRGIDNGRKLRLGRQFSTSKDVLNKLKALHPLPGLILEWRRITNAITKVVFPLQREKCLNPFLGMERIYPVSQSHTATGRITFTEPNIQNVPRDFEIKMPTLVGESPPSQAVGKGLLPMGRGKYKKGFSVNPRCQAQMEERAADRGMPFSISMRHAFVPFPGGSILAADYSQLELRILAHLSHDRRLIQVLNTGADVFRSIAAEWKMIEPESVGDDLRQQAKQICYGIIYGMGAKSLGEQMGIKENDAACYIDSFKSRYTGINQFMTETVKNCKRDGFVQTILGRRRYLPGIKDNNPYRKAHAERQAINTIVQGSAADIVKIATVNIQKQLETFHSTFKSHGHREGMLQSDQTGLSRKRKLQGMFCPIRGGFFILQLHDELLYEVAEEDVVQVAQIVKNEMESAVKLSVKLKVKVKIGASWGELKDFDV
Briefly: Picogreen assay of Polθ polymerase activity. The format is biochemical. The following applies: 12-point concentration response, 90 minutes incubation at room temperature, 8 nM Polθ in 2×polymerase mixture, read-out: PolQ IC50. In outline:
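E. coli-expressed polymerase domain with His-SUMO tag removed; 2× enzyme mix (8 nM) combined with 2× substrate mix (100 nM annealed primer/template DNA, 40 uM dNTPs). Buffer 25 mM Tris-HCl pH 7.5, 12.5 mM NaCl, 0.5 mM MgCl2, 1 mM DTT. Reaction 90 min at room temperature, then EDTA/Picogreen stain read at 485/520 nm; 12-point IC50.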
With `C=CC(=O)Nc1cc(C#CCN(C(=O)[C@@H]2CCS(=O)(=O)N2c2cc(C(F)(F)F)cc(C)n2)c2ccc(F)c(C)c2)ccn1` [compound 139, (S)-N-(3-(2-acrylamidopyridin-4-yl)prop-2-yn-1-yl)-N-(4-fluoro-3-methylphenyl)-2-(6-methyl-4-(trifluoromethyl)pyridin-2-yl)isothiazolidine-3-carboxamide 1,1-dioxide], the IC50 was 1 to 50 nM. The same measure, in the same setting: next, `C=CC(=O)Nc1ccc(C#CCN(C(=O)[C@@H]2CCS(=O)(=O)N2c2cc(C(F)(F)F)cc(C)n2)c2ccc(F)c(C)c2)nc1` [compound 140, (S)-N-(3-(5-acrylamidopyridin-2-yl)prop-2-yn-1-yl)-N-(4-fluoro-3-methylphenyl)-2-(6-methyl-4-(trifluoromethyl)pyridin-2-yl)isothiazolidine-3-carboxamide 1,1-dioxide]: 1 to 50 nM. The same measure, in the same setting: next, `C=CC(=O)Nc1ccc(C#CCN(C(=O)[C@@H]2CCS(=O)(=O)N2c2cc(C(F)(F)F)cc(C)n2)c2ccc(F)c(C)c2)cn1` [compound 141, (S)-N-(3-(6-acrylamidopyridin-3-yl)prop-2-yn-1-yl)-N-(4-fluoro-3-methylphenyl)-2-(6-methyl-4-(trifluoromethyl)pyridin-2-yl)isothiazolidine-3-carboxamide 1,1-dioxide]: 1 to 50 nM; `C=CC(=O)Nc1cccnc1C#CCN(C(=O)[C@@H]1CCS(=O)(=O)N1c1cc(C(F)(F)F)cc(C)n1)c1ccc(F)c(C)c1` [compound 142, (S)-N-(3-(3-acrylamidopyridin-2-yl)prop-2-yn-1-yl)-N-(4-fluoro-3-methylphenyl)-2-(6-methyl-4-(trifluoromethyl)pyridin-2-yl)isothiazolidine-3-carboxamide 1,1-dioxide]: 1 to 50 nM. In the case of `C=CC(=O)Nc1ccncc1C#CCN(C(=O)[C@@H]1CCS(=O)(=O)N1c1cc(C(F)(F)F)cc(C)n1)c1ccc(F)c(C)c1` [compound 143, (S)-N-(3-(4-acrylamidopyridin-3-yl)prop-2-yn-1-yl)-N-(4-fluoro-3-methylphenyl)-2-(6-methyl-4-(trifluoromethyl)pyridin-2-yl)isothiazolidine-3-carboxamide 1,1-dioxide], the IC50 fell in the range of 51 to 100 nM.

In the case of `C=CC(=O)Nc1cnccc1C#CCN(C(=O)[C@@H]1CCS(=O)(=O)N1c1cc(C(F)(F)F)cc(C)n1)c1ccc(F)c(C)c1` [compound 144, (S)-N-(3-(3-acrylamidopyridin-4-yl)prop-2-yn-1-yl)-N-(4-fluoro-3-methylphenyl)-2-(6-methyl-4-(trifluoromethyl)pyridin-2-yl)isothiazolidine-3-carboxamide 1,1-dioxide], the IC50 fell in the range of 51 to 100 nM.

On to `Cc1cc(C(F)(F)F)cc(N2[C@H](C(=O)N(CC#Cc3ccc(C(N)=O)nc3)c3ccc(F)c(C)c3)CC3(CC3)S2(=O)=O)n1` [compound 145, (S)—N-(3-(6-carbamoylpyridin-3-yl)prop-2-yn-1-yl)-N-(4-fluoro-3-methylphenyl)-5-(6-methyl-4-(trifluoromethyl)pyridin-2-yl)-4-thia-5-azaspiro [2,4]heptane-6-carboxamide 4,4-dioxide], for which the IC50 lay in the range of 1 to 50 nM.

The test system of the next assay is DLD-1 BRCA2(−/−) Cell. Briefly: Cell viability assay (Resazurin) in DLD1-BRCA2 cells. The format is cell-based. The following applies: Homo sapiens, DLD-1, 336 h, 14 days, 1,500 cells/well, final DMSO 1%. The method, then: DLD1-BRCA2 KG (Horizon Discovery, Cat #HD 105-007) cells and DLD1-parental cells were maintained in culture media (RPMI-1640 including 2 mM L-glutamin and 25 mM sodium bicarbonate, supplemented with 10% FBS), at 37° C. in a humidified atmosphere with 5% CO2. Cells were seeded at the final concentration of 1,500 cells/well (DLD1-BRCA2 KG) and 600 cells/well (DLD1-parental) in a 96-well plate. Four hours later, test compounds were added (the final concentration of DMSO was 1%) to the cells and media were replaced every 3-4 days for 14 days. To measure viability, cells were incubated in culture media supplemented with 0.1 mg/ml of Resazurin (Merck, Cat #R7017) for 4 hours. The fluorescence was measured at Ex/Em=560 nm/590 nm using EnSight multimode plate reader (Perkin Elmer). Data analysis and IC50 calculation was done using GraphPad Prism (Version 10.0.2).
`Cc1cccc(N(CC#Cc2ccc(N)nn2)C(=O)[C@@H]2CCC(=O)N2c2cc(C(F)(F)F)cc(C)n2)c1` [Example 1, (S)—N-(3-(6-aminopyridazin-3-yl)prop-2-yn-1-yl)-1-(6-methyl-4-(trifluoromethyl)pyridin-2-yl)-5-oxo-N-(m-tolyl)pyrrolidine-2-carboxamide] had an IC50 of less than 1000 nM. Same read-out and setting: next, `Cc1cc(C(F)(F)F)cc(N2C(=O)CC[C@H]2C(=O)N(CC#Cc2ccc(N)nn2)c2ccc(F)c(C)c2F)n1` [Example 2, (S)-N-(3-(6-aminopyridazin-3-yl)prop-2-yn-1-yl)-N-(2,4-difluoro-3-methylphenyl)-1-(6-methyl-4-(trifluoromethyl)pyridin-2-yl)-5-oxopyrrolidine-2-carboxamide]: less than 1000 nM. As for `Cc1cc(C(F)(F)F)cc(N2C(=O)CC[C@H]2C(=O)N(CC#Cc2ccc(N)nn2)c2ccc(F)c(Cl)c2)n1` [Example 3, (S)-N-(3-(6-aminopyridazin-3-yl)prop-2-yn-1-yl)-N-(3-chloro-4-fluorophenyl)-1-(6-methyl-4-(trifluoromethyl)pyridin-2-yl)-5-oxopyrrolidine-2-carboxamide], the IC50 is less than 1000 nM. The compound `Cc1cc(C(F)(F)F)cc(N2C(=O)CC[C@H]2C(=O)N(CC#Cc2ccc(N)nn2)c2ccc(F)c(Cl)c2F)n1` [Example 4, (S)-N-(3-(6-aminopyridazin-3-yl)prop-2-yn-1-yl)-N-(3-chloro-2,4-difluorophenyl)-1-(6-methyl-4-(trifluoromethyl)pyridin-2-yl)-5-oxopyrrolidine-2-carboxamide] registered an IC50 of less than 1000 nM. Still for that read-out and setting: next, `Cc1cc(C(F)(F)F)cc(N2C(=O)CC[C@H]2C(=O)N(CC#Cc2ccc(N)nn2)c2ccc(F)c(C)c2)n1` [Example 5, (2S)-N-(3-(6-aminopyridazin-3-yl)prop-2-ynyl]-N-(4-fluoro-3-methyl-phenyl)-1-[6-methyl-4-(trifluoromethyl)-2-pyridyl]-5-oxo-pyrrolidine-2-carboxamide]: less than 1000 nM; `Cc1cc(C(F)(F)F)cc(N2C(=O)CC[C@H]2C(=O)N(CC#Cc2cnc(N)cn2)c2ccc(F)c(C)c2)n1` [Example 6, (2S)-N-[3-(5-aminopyrazin-2-yl)prop-2-ynyl]-N-(4-fluoro-3-methyl-phenyl)-1-[6-methyl-4-(trifluoromethyl)-2-pyridyl]-5-oxo-pyrrolidine-2-carboxamide]: less than 1000 nM.

`Cc1cc(C(F)(F)F)cc(N2C(=O)CC[C@H]2C(=O)N(CC#Cc2cccc(=O)[nH]2)c2ccc(F)c(C)c2)n1` [Example 7, (2S)-N-(4-fluoro-3-methyl-phenyl)-1-[6-methyl-4-(trifluoromethyl)-2-pyridyl]-5-oxo-N-[3-(6-oxo-1H-pyridin-2-yl)prop-2-ynyl]pyrrolidine-2-carboxamide]: the IC50 was less than 1000 nM.

With `Cc1cc(C(F)(F)F)cc(N2C(=O)CC[C@H]2C(=O)N(CC#Cc2ccc(F)cn2)c2ccc(F)c(C)c2)n1` [Example 8, (S)-N-(4-fluoro-3-methylphenyl)-N-(3-(5-fluoropyridin-2-yl)prop-2-yn-1-yl)-1-(6-methyl-4-(trifluoromethyl)pyridin-2-yl)-5-oxopyrrolidine-2-carboxamide], the IC50 is less than 1000 nM. The compound `Cc1cc(C(F)(F)F)cc(N2C(=O)CC[C@H]2C(=O)N(CC#Cc2cncn2C)c2ccc(F)c(C)c2)n1` [Example 9, (S)-N-(4-fluoro-3-methylphenyl)-N-(3-(1-methyl-1H-imidazol-5-yl)prop-2-yn-1-yl)-1-(6-methyl-4-(trifluoromethyl)pyridin-2-yl)-5-oxopyrrolidine-2-carboxamide] registered an IC50 of less than 1000 nM.

As to `Cc1cc(C(F)(F)F)cc(N2C(=O)CC[C@H]2C(=O)N(CC#Cc2cnc(N3CCOCC3)cn2)c2ccc(F)c(C)c2)n1` [Example 10, (S)-N-(4-fluoro-3-methylphenyl)-1-(6-methyl-4-(trifluoromethyl)pyridin-2-yl)-N-(3-(5-morpholinopyrazin-2-yl)prop-2-yn-1-yl)-5-oxopyrrolidine-2-carboxamide], the IC50 was less than 1000 nM. Turning to `CCN1CCN(c2cnc(C#CCN(C(=O)[C@@H]3CCC(=O)N3c3cc(C(F)(F)F)cc(C)n3)c3ccc(F)c(C)c3)cn2)CC1` [Example 11, (S)-N-(3-(5-(4-ethylpiperazin-1-yl)pyrazin-2-yl)prop-2-yn-1-yl)-N-(4-fluoro-3-methylphenyl)-1-(6-methyl-4-(trifluoromethyl)pyridin-2-yl)-5-oxopyrrolidine-2-carboxamide], the IC50 was less than 1000 nM.
